Data as given in USRE40086E1, “Method for treating bacterial infection with novel 7-substituted-9-substituted amino 6-demethyl-6-deoxytetracyclines” (Wyeth Holdings Corporation, priority 1991, dated 2008).
Like-named read-outs stand apart in the source and are kept apart here.

How the values were obtained:
Type in all cases: cell-based
E. coli J3272 TetC = assay: MIC, agar dilution (Table IA); conditions: unit assumed
E. coli J3272 TetD = assay: MIC, agar dilution (Table IA); conditions: unit assumed
S. mariescens FDOR 8733 = assay: MIC, agar dilution (Table IA); conditions: unit assumed
E. coli BAJ9003 = assay: MIC, agar dilution (Table IA)
E. coli UBMS 88-1 (tetB) = assay: MIC, agar dilution; conditions: E. coli UBMS 88-1 TetB; Table IA; unit assumed
[1] = system: S. aureus UBMS 88-5 (tetM); assay: MIC, agar dilution; conditions: S. aureus UBMS 88-5 TetM; Table IA; unit assumed
E. coli #311 (MP) = assay: MIC, agar dilution (Table IA); conditions: unit assumed
S. aureus ROSE (MP) = assay: MIC, agar dilution (Table IA); conditions: unit assumed
E. coli J2175 = assay: MIC, agar dilution (Table IA); conditions: unit assumed
[2] = system: S. aureus UBMS 90-1 (tetM); assay: MIC, agar dilution; conditions: S. aureus UBMS 90-1 TetM; Table IA; unit assumed
[3] = system: Ps. acruginosa ATCC 27853; assay: MIC, agar dilution (Table IA); conditions: unit assumed
[4] = system: S. aureus ATCC 29213 (Sensitive); assay: MIC, agar dilution; conditions: S. aureus ATCC 29213; Table IA; unit assumed
E. coli ATCC 25922 = assay: MIC, agar dilution; conditions: E. coli ATCC 25922; Table IA; unit assumed
E. coli UBMS 89-1 (tetM) = assay: MIC, agar dilution; conditions: E. coli UBMS 89-1 TetM; Table IA; unit assumed
[5] = system: S. aureus UBMS 90-2 (tetM); assay: MIC, agar dilution; conditions: S. aureus UBMS 90-2 TetM; Table IA; unit assumed
[6] = system: S. aureus IVES 1983 (meth. resistant); assay: MIC, agar dilution; conditions: S. aureus IVES 1983; Table IA; unit assumed
E. faecalis ATCC 29212 = assay: MIC, agar dilution; conditions: E. faecalis ATCC 29212; Table IA; unit assumed
E. coli PRP1 TetA = assay: MIC, agar dilution (Table IA); conditions: unit assumed
[7] = system: S. haemolyticus AVAH 88-3; assay: MIC, agar dilution; conditions: S. hemolyticus AVHAH 88-3; Table IA; unit assumed
E. coli MC4100 TetB = assay: MIC, agar dilution (Table IA); conditions: unit assumed
[8] = system: X. maltophilia NEMC 87210; assay: MIC, agar dilution (Table IA); conditions: unit assumed
[9] = system: S. aureus UBMS 90-3 (Sensitive); assay: MIC, agar dilution; conditions: S. aureus UBMS 90-3; Table IA; unit assumed
[10] = system: E. coli UBMS 89-2 (Sensitive); assay: MIC, agar dilution; conditions: E. coli UBMS 89-2 Tet Sens.; Table IA; unit assumed
[11] = system: S. aureus UBMS 88-7 (tetK); assay: MIC, agar dilution; conditions: S. aureus UBMS 88-7 TetK; Table IA; unit assumed
[12] = system: S. aureus UBMS 88-4 (Sensitive); assay: MIC, agar dilution; conditions: S. aureus UBMS 88-4; Table IA; unit assumed
E. coli UBMS 90-4 (tetM) = assay: MIC, agar dilution; conditions: E. coli UBMS 90-4 TetM; Table IA; unit assumed
E. coli MC4100 Tet sens. = assay: MIC, agar dilution (Table IA); conditions: unit assumed
[13] = system: S. aureus IVES 2943 (meth. resistant); assay: MIC, agar dilution; conditions: S. aureus IVES 2943; Table IA; unit assumed
S. aureus NEMC 8769/89-4 = assay: MIC, agar dilution (Table IA); conditions: unit assumed
E. faecalis 12201 = assay: MIC, agar dilution; conditions: Enterococcus 12201; Table IA; unit assumed
[14] = system: S. aureus Smith (Sensitive); assay: MIC, agar dilution; conditions: S. aureus SMITH (MP); Table IA; unit assumed
E. coli UBMS 90-5 = assay: MIC, agar dilution (Table IA); conditions: unit assumed

Row | Compound | Antibacterial activity (MIC) (E. coli J3272 TetC) [µg/mL] | Antibacterial activity (MIC) (E. coli J3272 TetD) [µg/mL] | Antibacterial activity (MIC) (S. mariescens FDOR 8733) [µg/mL] | Antibacterial activity (MIC) (E. coli UBMS 88-1 (tetB)) [µg/mL] | Antibacterial activity (MIC) [1] [µg/mL] | Antibacterial activity (MIC) (E. coli #311 (MP)) [µg/mL] | Antibacterial activity (MIC) (S. aureus ROSE (MP)) [µg/mL] | Antibacterial activity (MIC) (E. coli J2175) [µg/mL] | Antibacterial activity (MIC) [2] [µg/mL] | Antibacterial activity (MIC) [3] [µg/mL] | Antibacterial activity (MIC) [4] [µg/mL] | Antibacterial activity (MIC) (E. coli ATCC 25922) [µg/mL] | Antibacterial activity (MIC) (E. coli UBMS 89-1 (tetM)) [µg/mL] | Antibacterial activity (MIC) [5] [µg/mL] | Antibacterial activity (MIC) [6] [µg/mL] | Antibacterial activity (MIC) (E. faecalis ATCC 29212) [µg/mL] | Antibacterial activity (MIC) (E. coli PRP1 TetA) [µg/mL] | Antibacterial activity (MIC) [7] [µg/mL] | Antibacterial activity (MIC) (E. coli MC4100 TetB) [µg/mL] | Antibacterial activity (MIC) [8] [µg/mL] | other results
1 | CCCCN(C)CC(=O)Nc1cc(N(C)C)c2c(c1O)C(=O)C1=C(O)C3(O)C(=O)C(C(N)=O)=C(O)C(N(C)C)C3CC1C2.Cl.Cl (stereo not drawn) [CCC, [4S-(4alpha,12aalpha)]-9-[[(Butylmethylamino)acetyl]amino]-4,7-Bis(dimethylamino)-1,4,4a,5,5a,6,11,12a-octahydro-3,10-12,12a-tetrahydroxy-1,11-dioxo-2-naphthacenecarboxamide dihydrochloride] | 1 | 0.5 | 16 | 1 | 0.5 | 1 | 2 | 2 | 1 | > 32 | 0.5 | 1 | 0.25 | 0.25 | 1 | 0.12 | 2 | 0.5 | 2 | 0.25 | Antibacterial activity (MIC) (E. coli BAJ9003; unit assumed): 0.12 µg/mL; Antibacterial activity (MIC) [9]: 0.25 µg/mL; Antibacterial activity (MIC) [10]: 2 µg/mL; Antibacterial activity (MIC) [11]: 1 µg/mL; Antibacterial activity (MIC) [12]: 0.5 µg/mL; Antibacterial activity (MIC) (E. coli UBMS 90-4 (tetM)): 1 µg/mL; Antibacterial activity (MIC) (E. coli MC4100 Tet sens.): 0.25 µg/mL; Antibacterial activity (MIC) [13]: 1 µg/mL; Antibacterial activity (MIC) (S. aureus NEMC 8769/89-4): 0.12 µg/mL; Antibacterial activity (MIC) (E. faecalis 12201): 0.25 µg/mL; Antibacterial activity (MIC) [14]: 0.5 µg/mL; Antibacterial activity (MIC) (E. coli UBMS 90-5): 2 µg/mL
2 | CN(C)CC(=O)Nc1cc(N(C)C)c2c(c1O)C(=O)C1=C(O)[C@]3(O)C(=O)C(C(=O)NCN4CCCC4)=C(O)[C@@H](N(C)C)C3CC1C2 (stereo partly drawn) [FFF, [4S-(4alpha,12aalpha)]-4,7-Bis(dimethylamino)-9-[[(dimethylamino)acetyl]amino]-1,4,4a,5,5a,6,11,12a-octahydro-3,10,12,12a-tetrahydroxy-1,11-dioxo-N-(1-pyrrolidinylmethyl)-2-naphthacenecarboxamide] | 1 | 0.12 | 4 | 0.25 | 0.12 | 0.25 | 2 | 0.25 | 0.12 | 8 | 0.12 | 0.12 | 0.12 | 0.12 | 2 | 0.06 | 2 | 0.25 | 0.25 | 0.25 | Antibacterial activity (MIC) (E. coli BAJ9003): ≧0.015; Antibacterial activity (MIC) [9]: 0.12 µg/mL; Antibacterial activity (MIC) [10]: 0.25 µg/mL; Antibacterial activity (MIC) [11]: 1 µg/mL; Antibacterial activity (MIC) [12]: 0.12 µg/mL; Antibacterial activity (MIC) (E. coli UBMS 90-4 (tetM)): 0.12 µg/mL; Antibacterial activity (MIC) (E. coli MC4100 Tet sens.): 0.06 µg/mL; Antibacterial activity (MIC) [13]: 2 µg/mL; Antibacterial activity (MIC) (S. aureus NEMC 8769/89-4): 0.25 µg/mL; Antibacterial activity (MIC) (E. faecalis 12201): 0.12 µg/mL; Antibacterial activity (MIC) [14]: 0.12 µg/mL; Antibacterial activity (MIC) (E. coli UBMS 90-5): 0.25 µg/mL
3 | CN(C)CC(=O)Nc1cc(N(C)C)c2c(c1O)C(=O)C1=C(O)[C@]3(O)C(=O)C(C(=O)NCN4CCOCC4)=C(O)[C@@H](N(C)C)C3CC1C2 (some centres unmarked) [GGG] | 1 | 0.12 | 4 | 0.25 | 0.12 | 0.25 | 2 | 0.25 | 0.25 | 8 | 0.25 | 0.12 | 0.12 | 0.12 | 2 | 0.06 | 1 | 0.5 | 0.25 | 0.5 | Antibacterial activity (MIC) (E. coli BAJ9003; unit assumed): 0.03 µg/mL; Antibacterial activity (MIC) [9]: 0.12 µg/mL; Antibacterial activity (MIC) [10]: 0.25 µg/mL; Antibacterial activity (MIC) [11]: 1 µg/mL; Antibacterial activity (MIC) [12]: 0.12 µg/mL; Antibacterial activity (MIC) (E. coli UBMS 90-4 (tetM)): 0.25 µg/mL; Antibacterial activity (MIC) (E. coli MC4100 Tet sens.): 0.06 µg/mL; Antibacterial activity (MIC) [13]: 2 µg/mL; Antibacterial activity (MIC) (S. aureus NEMC 8769/89-4): 0.25 µg/mL; Antibacterial activity (MIC) (E. faecalis 12201): 0.12 µg/mL; Antibacterial activity (MIC) [14]: 0.12 µg/mL; Antibacterial activity (MIC) (E. coli UBMS 90-5): 0.25 µg/mL
4 | CN(C)CC(=O)Nc1cc(N(C)C)c2c(c1O)C(=O)C1=C(O)[C@]3(O)C(=O)C(C(=O)NCN4CCCCC4)=C(O)[C@@H](N(C)C)C3CC1C2 (stereo partly drawn) [HHH, [4S-(4alpha,12aalpha)]-4,7-Bis(dimethylamino)-9-([(dimethylamino)acetyl]amino]-1,4,4a,5,5a,6,11,12a-octahydro-3,10,12,12a-tetrahydroxy-1,11-dioxo-N-(1-piperadinylmethyl)-2-naphthacenecarboxamide] | 0.5 | 0.12 | 4 | 0.25 | 0.25 | 0.25 | 2 | 0.25 | 0.25 | 8 | 0.25 | 0.25 | 0.25 | 0.12 | 2 | 0.06 | 2 | 0.5 | 0.25 | 0.5 | Antibacterial activity (MIC) (E. coli BAJ9003; unit assumed): 0.03 µg/mL; Antibacterial activity (MIC) [9]: 0.12 µg/mL; Antibacterial activity (MIC) [10]: 0.25 µg/mL; Antibacterial activity (MIC) [11]: 0.5 µg/mL; Antibacterial activity (MIC) [12]: 0.25 µg/mL; Antibacterial activity (MIC) (E. coli UBMS 90-4 (tetM)): 0.25 µg/mL; Antibacterial activity (MIC) (E. coli MC4100 Tet sens.): 0.12 µg/mL; Antibacterial activity (MIC) [13]: 2 µg/mL; Antibacterial activity (MIC) (S. aureus NEMC 8769/89-4): 0.25 µg/mL; Antibacterial activity (MIC) (E. faecalis 12201): 0.12 µg/mL; Antibacterial activity (MIC) [14]: 0.12 µg/mL; Antibacterial activity (MIC) (E. coli UBMS 90-5): 0.25 µg/mL
